Laboratory results published in paper PMC12656268, “Venom Peptides Across Asian and American Tarantulas Utilize Dual Pharmacology to Target Activation and Fast Inactivation of Voltage-Gated Sodium Channels” (Toxins, 2025).
“Also recorded” adds a separate entry of the source. Positions of bridges follow the written chain, without caps; N, C: chain ends. Residues, ends and D or L forms follow the SMILES beside them.

Columns and labels:
[1] = target: hNaV1.2 (Homo sapiens, UniProt Q99250); test: hNaV1.2 peak current inhibition, automated whole-cell patch clamp (QPatch 16X); format: cell-based; conditions: for IC50: HEK293 + β1, holding −80 mV, 20 ms step to 0 mV from −120 mV 200 ms prepulse, 5 min incubation, mean ± SEM, 3 to 9 independent experiments, read-out: IC50, inhibition of peak current, NaV1.2
Protocol: Unless otherwise specified, all cell culture reagents were obtained from Life Technologies (Carlsbad, CA, USA). The human neuroblastoma cell line SH-SY5Y (ATCC CRL-2266; Manassas, VA, USA) was maintained in RPMI medium supplemented with 15% fetal bovine serum (FBS) and 2 mM L-glutamine. HEK293 cells stably expressing human NaV channel isoforms together with the β1 auxiliary subunit (SB Drug Discovery, Glasgow, UK) were propagated in Minimal Essential Medium (MEM; Sigma-Aldrich, St. Louis, MO, USA) containing 10% FBS, 100 U/mL penicillin, 100 µg/mL streptomycin, 2 mM L-glutamine, and selective antibiotics (blasticidin, geneticin, and zeocin) at concentrations recommended by the supplier. […]
Sodium channel currents were recorded from HEK293 cells expressing human NaV isoforms together with the β1 auxiliary subunit (SB Drug Discovery, Glasgow, UK) using the QPatch 16X automated whole-cell patch-clamp platform (Sophion Bioscience A/S, Ballerup, Denmark). […] For determining the potency of Oa1a peptides to inhibit peak current, the maximum peak current within the 20 ms at 0 mV was measured. For determining the potency of Oa1a-NH2 to slow fast inactivation, peak current values were measured at 20 ms of the 0 mV depolarization step. […]
(§1) For calcium influx experiments, bioactivity comparisons between venom fractions and controls were based on the difference between the maximal and minimal fluorescence intensity values obtained from single-replicate assays. […] Reversibility and dissociation kinetics were analyzed by fitting data with a single-phase exponential decay model, while voltage-dependence of steady-state activation and inactivation parameters were derived from Boltzmann sigmoid fits of normalized conductance (G/Gmax) or current (I/Imax) values to determine the half-activation or half-inactivation voltages (V50). Data are expressed as mean ± SEM, where n represents the number of individual cells analyzed.

[2] = target: NaV1.1 (Homo sapiens, UniProt P35498); test: Off-rate / reversibility on NaV1.1, patch clamp with saline washes; format: cell-based; conditions: for 95% CI of off-rate (dissociation time), NaV1.1: peptide at 10× IC50 for 10 min, then saline washes, 3 to 5 independent repeats; for Reversibility on NaV1.1 by washing: peptide at 10× IC50 for NaV1.1, then washing
Protocol: For off-rate measurements, cells at a holding potential −80 mV were incubated with peptide for 10 min at a concentration equivalent to 10 times their IC50 for the NaV subtype being analyzed, followed by saline washes. Na^+ currents were assessed every 10 s utilizing a holding potential −80 mV and currents elicited by 20 ms voltage step to 0 mV from a −120 mV conditioning pulse applied for 200 ms. Ion currents (INa) plotted as I/Imax, where I = current value and Imax = highest current value within the experiment.
(§2) For calcium influx experiments, bioactivity comparisons between venom fractions and controls were based on the difference between the maximal and minimal fluorescence intensity values obtained from single-replicate assays. Electrophysiological data analysis was conducted using GraphPad Prism (version 8; GraphPad Software, San Diego, CA, USA). Nonlinear regression was applied to fit the concentration–response relationships using a variable Hill slope: log(inhibitor) versus normalized response for determining IC50 values, and log(agonist) versus normalized response for EC50 calculations. Reversibility and dissociation kinetics were analyzed by fitting data with a single-phase exponential decay model, while voltage-dependence of steady-state activation and inactivation parameters were derived from Boltzmann sigmoid fits of normalized conductance (G/Gmax) or current (I/Imax) values to determine the half-activation or half-inactivation voltages (V50). Data are expressed as mean ± SEM, where n represents the number of individual cells analyzed.

[3] = system: NaV1.7; test: Voltage dependence of steady-state inactivation and activation, NaV1.7; format: cell-based, human; conditions: for V50 of steady-state activation in presence of peptide, NaV1.7: control V50 = −28 ± 0.5 mV (sOa1a-NH2 experiment), −25 ± 0.7 mV (sOa1a-OH experiment); for V50 of steady-state activation in presence of peptide, NaV1.7 / V50 of steady-state inactivation in presence of peptide, NaV1.7: 5 min at IC50 concentration, mean ± SEM, 3 to 5 repeats; for V50 of steady-state inactivation in presence of peptide, NaV1.7: control V50 = −66 ± 0.7 mV (sOa1a-NH2 experiment), −66 ± 0.3 mV (sOa1a-OH experiment); for Effect on current–voltage relationships (activation, steady-state inactivation), NaV1.7: peptide at IC50 concentration
Protocol: The voltage dependence of steady-state activation was assessed by recording sodium currents evoked by depolarizing voltage steps ranging from −110 mV to +80 mV in 5 mV increments. Peak conductance (GNa) was derived using the equation G = I/(V − Vrev), where I denotes the measured current, V the applied membrane potential, and Vrev the sodium reversal potential. To evaluate the voltage dependence of steady-state fast inactivation, a two-pulse protocol was used. Cells were conditioned with 500 ms pre-pulses at potentials between −130 mV and −10 mV (10 mV increments), followed by a 20 ms test depolarization to 0 mV to elicit sodium currents. The steady-state fast inactivation currents were plotted as I/Imax, where I = current value and Imax = highest current value within the experiment. The voltage-dependence of steady-state activation and inactivation were determined either in the absence of peptide or following 5 min exposure to peptide at the respective IC50 concentration at the NaV subtype analyzed to streamline the investigation using an effective single concentration as previously described by us.
as §2

[4] = target: NaV1.3 (Homo sapiens, UniProt Q9NY46); test: Slowing of fast inactivation of NaV1.3; format: cell-based; conditions: for Slowing of fast inactivation of NaV1.3 (in words): closed-state voltage protocol, current traces, concentrations up to those of IC50 curves
Protocol: Sodium channel currents were recorded from HEK293 cells expressing human NaV isoforms together with the β1 auxiliary subunit (SB Drug Discovery, Glasgow, UK) using the QPatch 16X automated whole-cell patch-clamp platform (Sophion Bioscience A/S, Ballerup, Denmark). The external recording solution contained (in mM) the following: 140 NaCl, 3 KCl, 1 CaCl2, 1 MgCl2, 0.1 CdCl2, 20 tetraethylammonium chloride (TEA-Cl), and 5 HEPES; pH was adjusted to 7.3 and osmolarity to 320 mOsm. The internal (pipette) solution consisted of (in mM) the following: 140 CsF, 10 NaCl, 10 HEPES, and 1/5 EGTA/CsOH, also adjusted to pH 7.3 and 320 mOsm. Cells were voltage-clamped at a holding potential of −80 mV, and inward Na^+ currents were evoked by 20 ms depolarizing pulses to 0 mV following a 200 ms hyperpolarizing prepulse to −120 mV. To obtain concentration–response curves, cells at holding potential were incubated for 5 min with increasing concentrations of Oa1a peptides. For determining the potency of Oa1a peptides to inhibit peak current, the maximum peak current within the 20 ms at 0 mV was measured. For determining the potency of Oa1a-NH2 to slow fast inactivation, peak current values were measured at 20 ms of the 0 mV depolarization step. Ion currents (INa) were plotted as I/Imax, where I = current value and Imax = highest current value within the experiment.
as §2

[5] = system: hNaV1.1 to hNaV1.7; test: NaV subtype preference across NaV1.1 to NaV1.7, patch clamp; format: cell-based, human; conditions: NaV1.1 to NaV1.7, closed-state voltage protocol
Protocol: Unless otherwise specified, all cell culture reagents were obtained from Life Technologies (Carlsbad, CA, USA). The human neuroblastoma cell line SH-SY5Y (ATCC CRL-2266; Manassas, VA, USA) was maintained in RPMI medium supplemented with 15% fetal bovine serum (FBS) and 2 mM L-glutamine. HEK293 cells stably expressing human NaV channel isoforms together with the β1 auxiliary subunit (SB Drug Discovery, Glasgow, UK) were propagated in Minimal Essential Medium (MEM; Sigma-Aldrich, St. Louis, MO, USA) containing 10% FBS, 100 U/mL penicillin, 100 µg/mL streptomycin, 2 mM L-glutamine, and selective antibiotics (blasticidin, geneticin, and zeocin) at concentrations recommended by the supplier. HEK293T cells expressing the human CaV3.2 channel (a generous gift from Prof. Emmanuel Bourinet, Institut de Génomique Fonctionnelle, Université de Montpellier, France, and Prof. Edward Perez-Reyes, University of Virginia School of Medicine, USA) were grown in Dulbecco’s MEM supplemented with 10% FBS, 100 U/mL penicillin, 100 µg/mL streptomycin, and 750 µg/mL geneticin.
Sodium channel currents were recorded from HEK293 cells expressing human NaV isoforms together with the β1 auxiliary subunit (SB Drug Discovery, Glasgow, UK) using the QPatch 16X automated whole-cell patch-clamp platform (Sophion Bioscience A/S, Ballerup, Denmark). The external recording solution contained (in mM) the following: 140 NaCl, 3 KCl, 1 CaCl2, 1 MgCl2, 0.1 CdCl2, 20 tetraethylammonium chloride (TEA-Cl), and 5 HEPES; pH was adjusted to 7.3 and osmolarity to 320 mOsm. The internal (pipette) solution consisted of (in mM) the following: 140 CsF, 10 NaCl, 10 HEPES, and 1/5 EGTA/CsOH, also adjusted to pH 7.3 and 320 mOsm. […] For determining the potency of Oa1a peptides to inhibit peak current, the maximum peak current within the 20 ms at 0 mV was measured. For determining the potency of Oa1a-NH2 to slow fast inactivation, peak current values were measured at 20 ms of the 0 mV depolarization step. […]
as §1

Chain of NaV1.3 (Q9NY46 whole entry, canonical isoform): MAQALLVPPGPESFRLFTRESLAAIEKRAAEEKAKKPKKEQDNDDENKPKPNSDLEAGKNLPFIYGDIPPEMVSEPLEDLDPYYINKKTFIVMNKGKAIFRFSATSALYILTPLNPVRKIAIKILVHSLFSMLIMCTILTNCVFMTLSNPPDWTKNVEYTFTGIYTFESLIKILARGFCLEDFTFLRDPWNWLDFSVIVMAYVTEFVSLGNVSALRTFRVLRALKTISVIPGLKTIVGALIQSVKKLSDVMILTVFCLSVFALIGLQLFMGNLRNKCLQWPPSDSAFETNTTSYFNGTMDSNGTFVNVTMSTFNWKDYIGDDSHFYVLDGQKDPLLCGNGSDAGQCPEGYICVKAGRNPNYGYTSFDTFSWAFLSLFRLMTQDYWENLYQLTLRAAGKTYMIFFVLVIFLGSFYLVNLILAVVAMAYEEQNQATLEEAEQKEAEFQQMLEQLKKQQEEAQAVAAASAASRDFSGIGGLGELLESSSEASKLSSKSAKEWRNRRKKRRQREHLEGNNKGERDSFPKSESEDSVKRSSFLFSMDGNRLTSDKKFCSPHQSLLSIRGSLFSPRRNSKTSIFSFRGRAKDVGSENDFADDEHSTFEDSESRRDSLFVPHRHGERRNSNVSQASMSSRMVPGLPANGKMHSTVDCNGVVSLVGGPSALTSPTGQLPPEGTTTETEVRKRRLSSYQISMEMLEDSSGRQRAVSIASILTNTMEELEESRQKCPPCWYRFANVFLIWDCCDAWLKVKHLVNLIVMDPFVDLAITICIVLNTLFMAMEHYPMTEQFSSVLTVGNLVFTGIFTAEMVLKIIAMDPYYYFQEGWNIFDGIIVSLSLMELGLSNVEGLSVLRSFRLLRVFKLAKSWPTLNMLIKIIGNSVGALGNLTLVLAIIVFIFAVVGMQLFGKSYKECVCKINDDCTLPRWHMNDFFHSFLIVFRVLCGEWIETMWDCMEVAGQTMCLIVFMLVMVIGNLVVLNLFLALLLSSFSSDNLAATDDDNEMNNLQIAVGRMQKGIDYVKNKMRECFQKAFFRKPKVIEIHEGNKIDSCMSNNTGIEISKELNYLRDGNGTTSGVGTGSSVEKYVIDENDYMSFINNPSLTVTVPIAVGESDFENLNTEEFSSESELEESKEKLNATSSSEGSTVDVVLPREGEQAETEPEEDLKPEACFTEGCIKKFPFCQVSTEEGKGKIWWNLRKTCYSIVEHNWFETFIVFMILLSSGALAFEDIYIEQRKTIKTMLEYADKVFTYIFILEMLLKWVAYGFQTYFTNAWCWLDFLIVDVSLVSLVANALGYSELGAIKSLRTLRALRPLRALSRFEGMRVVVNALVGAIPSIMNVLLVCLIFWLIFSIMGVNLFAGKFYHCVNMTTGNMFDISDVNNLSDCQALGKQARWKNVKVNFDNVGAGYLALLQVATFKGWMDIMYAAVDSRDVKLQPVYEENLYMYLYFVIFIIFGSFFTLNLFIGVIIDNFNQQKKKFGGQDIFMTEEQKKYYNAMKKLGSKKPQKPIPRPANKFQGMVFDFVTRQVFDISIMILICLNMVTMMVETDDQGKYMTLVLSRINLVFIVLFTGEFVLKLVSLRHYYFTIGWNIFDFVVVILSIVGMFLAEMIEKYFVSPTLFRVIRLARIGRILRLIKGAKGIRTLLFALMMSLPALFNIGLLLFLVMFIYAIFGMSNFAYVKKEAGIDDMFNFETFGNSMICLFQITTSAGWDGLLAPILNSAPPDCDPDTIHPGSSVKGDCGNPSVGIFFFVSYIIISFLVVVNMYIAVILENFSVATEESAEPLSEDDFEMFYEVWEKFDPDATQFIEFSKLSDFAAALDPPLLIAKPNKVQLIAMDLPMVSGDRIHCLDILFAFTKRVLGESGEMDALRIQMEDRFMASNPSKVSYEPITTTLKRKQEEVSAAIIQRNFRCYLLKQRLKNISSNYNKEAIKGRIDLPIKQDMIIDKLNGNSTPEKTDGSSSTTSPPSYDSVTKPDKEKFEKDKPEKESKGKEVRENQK
Chain of NaV1.3 (Q07699 19-218, further chain): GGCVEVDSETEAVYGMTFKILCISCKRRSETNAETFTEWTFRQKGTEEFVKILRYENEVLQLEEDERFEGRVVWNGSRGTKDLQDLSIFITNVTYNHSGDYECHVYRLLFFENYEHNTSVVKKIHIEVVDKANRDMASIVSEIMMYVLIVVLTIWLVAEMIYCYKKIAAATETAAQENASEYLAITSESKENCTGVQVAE
Chain of hNaV1.2 (Q99250 whole entry, canonical isoform): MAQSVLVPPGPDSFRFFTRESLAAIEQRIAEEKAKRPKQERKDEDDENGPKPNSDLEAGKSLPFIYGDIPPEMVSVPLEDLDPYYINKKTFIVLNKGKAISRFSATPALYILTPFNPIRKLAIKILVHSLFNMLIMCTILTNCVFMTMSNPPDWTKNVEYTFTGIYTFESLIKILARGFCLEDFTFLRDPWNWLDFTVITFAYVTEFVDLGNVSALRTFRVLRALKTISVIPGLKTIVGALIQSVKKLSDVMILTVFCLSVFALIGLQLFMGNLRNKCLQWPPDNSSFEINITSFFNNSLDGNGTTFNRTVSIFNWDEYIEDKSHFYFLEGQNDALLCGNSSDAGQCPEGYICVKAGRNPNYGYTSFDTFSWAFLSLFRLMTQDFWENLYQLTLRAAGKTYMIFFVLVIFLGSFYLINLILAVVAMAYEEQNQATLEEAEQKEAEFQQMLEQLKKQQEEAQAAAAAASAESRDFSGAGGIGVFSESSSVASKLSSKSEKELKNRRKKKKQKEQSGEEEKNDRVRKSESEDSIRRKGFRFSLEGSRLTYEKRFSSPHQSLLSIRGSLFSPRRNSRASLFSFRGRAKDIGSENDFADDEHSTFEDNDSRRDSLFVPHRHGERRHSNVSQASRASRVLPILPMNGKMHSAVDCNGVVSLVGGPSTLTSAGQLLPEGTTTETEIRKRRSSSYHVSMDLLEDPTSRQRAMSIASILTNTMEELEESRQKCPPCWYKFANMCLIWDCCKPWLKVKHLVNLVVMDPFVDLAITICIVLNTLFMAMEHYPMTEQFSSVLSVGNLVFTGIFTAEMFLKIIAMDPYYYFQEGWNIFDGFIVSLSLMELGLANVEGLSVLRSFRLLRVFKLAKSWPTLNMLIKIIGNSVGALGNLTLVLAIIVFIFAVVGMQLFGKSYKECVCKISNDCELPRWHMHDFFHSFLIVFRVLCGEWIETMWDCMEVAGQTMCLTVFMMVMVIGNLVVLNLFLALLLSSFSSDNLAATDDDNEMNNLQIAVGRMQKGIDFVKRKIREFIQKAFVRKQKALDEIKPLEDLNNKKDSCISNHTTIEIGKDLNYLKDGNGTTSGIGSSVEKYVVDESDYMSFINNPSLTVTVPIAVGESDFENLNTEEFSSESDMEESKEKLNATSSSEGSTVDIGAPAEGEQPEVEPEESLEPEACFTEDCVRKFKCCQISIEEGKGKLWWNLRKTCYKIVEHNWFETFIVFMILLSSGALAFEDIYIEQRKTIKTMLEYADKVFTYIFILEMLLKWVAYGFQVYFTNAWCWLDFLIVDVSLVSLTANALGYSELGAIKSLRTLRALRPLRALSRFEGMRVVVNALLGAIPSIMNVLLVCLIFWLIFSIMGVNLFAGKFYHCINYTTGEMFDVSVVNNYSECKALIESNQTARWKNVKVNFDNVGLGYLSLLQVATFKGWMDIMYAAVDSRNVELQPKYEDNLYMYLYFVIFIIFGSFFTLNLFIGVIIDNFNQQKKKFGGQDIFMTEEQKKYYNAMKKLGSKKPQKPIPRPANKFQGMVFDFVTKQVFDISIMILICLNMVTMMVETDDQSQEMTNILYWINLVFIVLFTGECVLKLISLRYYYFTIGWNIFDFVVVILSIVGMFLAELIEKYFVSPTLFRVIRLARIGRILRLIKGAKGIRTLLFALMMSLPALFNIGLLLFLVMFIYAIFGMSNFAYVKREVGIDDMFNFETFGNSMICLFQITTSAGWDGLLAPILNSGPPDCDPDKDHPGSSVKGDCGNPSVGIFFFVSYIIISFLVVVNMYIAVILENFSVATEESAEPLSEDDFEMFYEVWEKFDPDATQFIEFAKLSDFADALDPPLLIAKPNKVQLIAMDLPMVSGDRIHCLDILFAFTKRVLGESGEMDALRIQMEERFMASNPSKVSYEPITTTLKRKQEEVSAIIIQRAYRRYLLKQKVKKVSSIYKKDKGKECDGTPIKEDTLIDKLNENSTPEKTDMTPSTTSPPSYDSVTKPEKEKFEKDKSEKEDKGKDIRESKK
Chain of hNaV1.2 (Q07699 19-218, further chain): as the sequence (Q07699 19-218, further chain) above

Row | Structure (SMILES) | IC50 [1] | Activity on NaV1.2 (in words) ([1]; tested at up to 3 μM) | 95% CI of off-rate (dissociation time), NaV1.1 [2] | Reversibility on NaV1.1 by washing [2] | V50 of steady-state activation in presence of peptide, NaV1.7 [3] | V50 of steady-state inactivation in presence of peptide, NaV1.7 [3] | Effect on current–voltage relationships (activation, steady-state inactivation), NaV1.7 [3] | Slowing of fast inactivation of NaV1.3 (in words) [4] | NaV subtype preference of inhibition (in words) [5] | Increase in off-rate through C-terminal amidation, NaV1.1 ([2]; sOa1a-NH2 vs sOa1a-OH) | EC50 ([4]; current measured at 20 ms of the 0 mV depolarization step, 5 min incubation, mean ± SEM, 3 to 5 repeats)
1 | CC(C)C[C@@H]1NC(=O)[C@H](Cc2ccccc2)NC(=O)[C@H](Cc2ccc(O)cc2)NC(=O)[C@H](CCCNC(=N)N)NC(=O)[C@@H](NC(=O)[C@@H](N)CCC(=O)O)CSSC[C@@H]2NC(=O)[C@@H]3CSSC[C@@H](C(=O)N[C@H](C(=O)N[C@@H](Cc4c[nH]c5ccccc45)C(=O)N[C@@H](CC(=O)O)C(=O)N[C@@H](Cc4c[nH]c5ccccc45)C(=O)N[C@H](C(=O)N[C@@H](Cc4ccccc4)C(=O)O)[C@@H](C)O)C(C)C)NC(=O)[C@H](Cc4c[nH]c5ccccc45)NC(=O)[C@H](CCC(N)=O)NC(=O)[C@H](Cc4c[nH]cn4)NC(=O)[C@H](CCCCN)NC(=O)[C@H](CC(N)=O)NC(=O)[C@H](Cc4c[nH]cn4)NC(=O)[C@H](CSSC[C@H](NC(=O)CNC(=O)CNC1=O)C(=O)N[C@@H](CO)C(=O)N[C@@H](CCC(N)=O)C(=O)NCC(=O)N[C@@H](CCC(=O)O)C(=O)N[C@@H](CCCCN)C(=O)N3)NC(=O)[C@H](C(C)C)NC(=O)[C@H](CC(C)C)NC(=O)[C@H](Cc1c[nH]cn1)NC(=O)[C@H](CCC(=O)O)NC2=O [sOa1a-OH] (H-ECRYFLGGCSQGEKCCEHLVCHNKHQWCVWDWTF-OH; disulfide 2-16, 9-21, 15-28; N-terminus assumed) | > 3000 nM | no activity | Off-rate 3.56 min (95% CI = 3.35 to 3.80 min) | completely reversed by washing | −22 mV | −71 mV | remained nearly unaltered | this dual modulatory activity was not observed | strong preference for inhibiting NaV1.1 |  | 
2 | CC(C)C[C@@H]1NC(=O)[C@H](Cc2ccccc2)NC(=O)[C@H](Cc2ccc(O)cc2)NC(=O)[C@H](CCCNC(=N)N)NC(=O)[C@@H](NC(=O)[C@@H](N)CCC(=O)O)CSSC[C@@H]2NC(=O)[C@@H]3CSSC[C@@H](C(=O)N[C@H](C(=O)N[C@@H](Cc4c[nH]c5ccccc45)C(=O)N[C@@H](CC(=O)O)C(=O)N[C@@H](Cc4c[nH]c5ccccc45)C(=O)N[C@H](C(=O)N[C@@H](Cc4ccccc4)C(N)=O)[C@@H](C)O)C(C)C)NC(=O)[C@H](Cc4c[nH]c5ccccc45)NC(=O)[C@H](CCC(N)=O)NC(=O)[C@H](Cc4c[nH]cn4)NC(=O)[C@H](CCCCN)NC(=O)[C@H](CC(N)=O)NC(=O)[C@H](Cc4c[nH]cn4)NC(=O)[C@H](CSSC[C@H](NC(=O)CNC(=O)CNC1=O)C(=O)N[C@@H](CO)C(=O)N[C@@H](CCC(N)=O)C(=O)NCC(=O)N[C@@H](CCC(=O)O)C(=O)N[C@@H](CCCCN)C(=O)N3)NC(=O)[C@H](C(C)C)NC(=O)[C@H](CC(C)C)NC(=O)[C@H](Cc1c[nH]cn1)NC(=O)[C@H](CCC(=O)O)NC2=O [sOa1a-NH2] (H-ECRYFLGGCSQGEKCCEHLVCHNKHQWCVWDWTF-NH2; disulfide 2-16, 9-21, 15-28; N-terminus assumed) | 154 ± 7 nM |  | Off-rate 4.6 min (95% CI = 4.27 to 4.97 min) | completely reversed by washing | −30 mV | −69 mV | remained nearly unaltered; also recorded: did not alter the voltage of activation or the steady-state inactivation | strongly slowing the fast inactivation of NaV1.3 | strong preference for inhibiting NaV1.1 | 1 min | 22.9 ± 1.8 nM
